Measured values published in patent US20220296611A1, “PHARMACEUTICAL COMPOSITION FOR PREVENTING OR TREATING CANCER” (SEOUL NATIONAL UNIVERSITY R&DB FOUNDATION, priority 2019, published 2022).

Assays:
[1] = test system: HeLa cells; assay: Comparison of cell viability of HeLa cells (MTT assay); assay type: cell-based; details: 24 h and 48 h after treatment; TUDCA 1000 μM, fenbendazole 1.2 μM, doxorubicin 10 μM
Method: 3. MTT Assay As illustrated in the flow chart shown in FIG. 1, the degree of cytotoxicity was evaluated through MTT assay. (1) HeLa cells are cervical cancer cell lines. In this experiment, experimental groups were divided as follows: specifically, a group in which HeLa cells are not treated, that is, no treatment group (NT); a doxorubicin-treated group (Doxo); a fenbendazole-treated group (Fen); a TUDCA treated group (TUDCA); and a group treated with a mixture of fenbendazole and TUDCA (Fen+TUDCA), and cell viability was compared over time (24 h, 48 h) after treatment. […] Further, the mixture of fenbendazole and TUDCA was prepared by mixing both compounds with the above concentrations at the same dose. Further, all treatment groups were treated with the corresponding compounds at the same dose.

[2] = test system: Hepa cells (Hepa1c1c7); assay: Comparison of cell viability of Hepa cells (MTT assay, cell number counting); assay type: cell-based, Murin; details: 48 h
Method: After culturing cells, the cells were resuspended in a fresh medium. After obtaining 200 μL of the cell suspension, […] of […] with a dilution factor of 2× was added thereto.
A hemocytometer equipped with a coverslip was prepared, and each chamber was filled with the suspension, followed by counting the number of cells. A specific counting method is as follows.
1) Live cells/ml=No. of cells counted/No. of squares counted×Dilution factor×1000
2) Dead cells/ml=No. of dead cells/No. of squares counted×Dilution factor×100
3) Percentage Viability=No. of live cells/Total No. of cells×100
As illustrated in the flow chart shown in FIG. 1, the degree of cytotoxicity was evaluated through MTT assay.
(1) In the present invention, all liver cancer cell lines were Murin hepatoma cell lines (Hepa1c1c7), hereinafter, referred to as Hepa cells. In this experiment, the following definitions were applied: no treatment group (NT); a fenbendazole treatment group (Fen); a TUDCA 200 μmol treatment group (TUDCA 200); a TUDCA 500 μmol treatment group (TUDCA 500); a TUDCA 1000 μmol treatment group (TUDCA 1000); a mixture of 1.2 μmol fenbendazole and 200 μmol TUDCA (1.2+200); a mixture of 1.2 μmol fenbendazole and 500 μmol TUDCA (1.2+500); a mixture of 1.2 μmol fenbendazole and 1000 μmol TUDCA (1.2+1000), respectively. […]

Row | SMILES | apoptotic effects (cell viability of HeLa cells) compared to doxorubicin [1] | apoptosis effect depending on the concentration of TUDCA [2]
1 | COC(=O)Nc1nc2ccc(Sc3ccccc3)cc2[nH]1 [fenbendazole] | more excellent apoptotic effects at 24 h and 48 h after treatment than doxorubicin | 
2 | C[C@H](CCC(=O)NCCS(=O)(=O)O)[C@H]1CC[C@H]2[C@@H]3[C@@H](O)C[C@@H]4C[C@H](O)CC[C@]4(C)[C@H]3CC[C@]12C [TUDCA, tauroursodeoxycholic acid] | more excellent apoptotic effects at 24 h and 48 h after treatment than doxorubicin | the higher the concentration of TUDCA, the better the apoptosis effect at 48 h
